In publication PMC12191008, “Heterostilbene Carbamates with Selective and Remarkable Butyrylcholinesterase Inhibition: Computational Study and Physico-Chemical Properties” (Biomolecules, 2025):
Where “and” joins values, the source holds several entries; their conditions need not be identical. Equal values may be shown once. Read-outs that look alike come from different tables or passages of the source.

Key:
[1] = target: BChE (EC 3.1.1.8, equine serum) (Equus caballus, UniProt P81908); experiment: In vitro ChE activity assay (modified Ellman), BChE; format: biochemical; conditions: for inhibition at 500 µM / inhibition at 50 µM: read-out: BChE % Inhibition
BChE (EC 3.1.1.8, equine serum), sequence (P81908 whole entry): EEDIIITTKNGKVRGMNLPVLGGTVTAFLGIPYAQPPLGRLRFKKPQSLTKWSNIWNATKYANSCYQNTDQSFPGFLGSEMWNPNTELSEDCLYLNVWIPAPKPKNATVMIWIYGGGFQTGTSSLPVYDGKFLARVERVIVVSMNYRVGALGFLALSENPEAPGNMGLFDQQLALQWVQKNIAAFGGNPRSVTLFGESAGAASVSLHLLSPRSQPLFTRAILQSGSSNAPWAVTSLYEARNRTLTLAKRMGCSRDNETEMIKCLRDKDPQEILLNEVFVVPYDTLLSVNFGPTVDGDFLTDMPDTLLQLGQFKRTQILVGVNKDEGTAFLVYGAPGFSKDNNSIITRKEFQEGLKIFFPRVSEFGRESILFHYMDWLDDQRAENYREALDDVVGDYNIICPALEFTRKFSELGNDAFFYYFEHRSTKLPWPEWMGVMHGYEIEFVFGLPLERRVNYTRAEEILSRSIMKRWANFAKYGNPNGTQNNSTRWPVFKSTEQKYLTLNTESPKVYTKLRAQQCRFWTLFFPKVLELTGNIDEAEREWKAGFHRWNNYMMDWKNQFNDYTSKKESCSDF

[2] = tested on: LPS-stimulated TNFα production in PBMCs; experiment: LPS-stimulated TNFα production in PBMCs (ELISA); format: cell-based; conditions: Homo sapiens, PBMC, read-out: IC50, inhibition of LPS-stimulated TNFα production
Experimental: The effect of compounds on lipopolysaccharide (LPS)-stimulated tumor necrosis factor alpha (TNFα) production was evaluated as described previously. In short, peripheral blood mononuclear cells (PBMCs) were isolated from buffy coats obtained from healthy adult volunteers and resuspended in RPMI1640 medium (Capricorn Scientific, Ebsdorfergrund, Germany) supplemented with 10% heat-inactivated FBS (Biowest, Bradenton, FL, USA), 1% GlutaMAX (Gibco, Waltham, MA, USA), and 1% antibiotic–antimycotic (Gibco). Then, 2 × 10^5 PBMCs were seeded per well of a 96-well plate. […]
TNFα concentration in supernatants was measured by ELISA using antibodies and recombinant human TNFα protein (standard) from R&D Systems. […] Finally, after the plates were incubated with streptavidin-HRP (Invitrogen, Waltham, MA, USA), chemiluminescence ELISA Substrate (Roche, Basel, Switzerland) was added to the wells, and luminescence was measured using an EnVision 2105 multilabel reader (Revvity, Waltham, MA, USA). Measured luminescence was used to calculate concentrations of TNFα in the supernatants by interpolation from the standard curve. Percentages of inhibition were calculated from obtained cytokine concentrations, and IC50 values were determined using GraphPad Prism v9 software with a nonlinear regression curve fit (four parameters with variable slope).

[3] = at maximal concentration tested
[4] = at maximal concentration tested, 50 μM

Row | SMILES | IC50 ([1]; read-out: BChE IC50) | IC50 ([1]; BChE IC50) | other results
1 | CNC(=O)Oc1ccccc1/C=C/c1cccs1 [Compound 1, (E)-2-(2-(thiophen-2-yl)vinyl)phenyl methylcarbamate] | 0.5 µM | – | inhibition at 10 µM [1, 3]: 84.4 ± 1.18%
2 | CNC(=O)Oc1ccc(F)cc1/C=C/c1cccs1 [Compound 2, (E)-4-fluoro-2-(2-(thiophen-2-yl)vinyl)phenyl methylcarbamate] | 3.74 µM | – | inhibition at 100 µM [1, 3]: 84.7 ± 3.2%
3 | CNC(=O)Oc1ccc(OC)cc1/C=C/c1cccs1 [Compound 3, (E)-4-methoxy-2-(2-(thiophen-2-yl)vinyl)phenyl methylcarbamate] | 150 µM | – | inhibition at 500 µM ([1]; at maximal concentration tested, 500 μM): 82.2 ± 2%
4 | CNC(=O)Oc1ccc(C)cc1/C=C/c1cccs1 [Compound 4, (E)-4-methyl-2-(2-(thiophen-2-yl)vinyl)phenyl methylcarbamate] | – | 1.1 µM and 0.913 µM | inhibition at 10 µM [1, 3]: 85.4 ± 2.29%
5 | CNC(=O)Oc1ccccc1/C=C/c1ccc(C)s1 [Compound 5, (E)-2-(2-(5-methylthiophen-2-yl)vinyl)phenyl methylcarbamate] | 1.1 µM | 0.913 µM | inhibition at 5 µM ([1]; at maximal concentration tested, 5 μM): 74.8 ± 2.36%
6 | CNC(=O)Oc1ccc(F)cc1/C=C/c1ccc(C)s1 [Compound 6, (E)-4-fluoro-2-(2-(5-methylthiophen-2-yl)vinyl)phenyl methylcarbamate] | – | 14.1 µM | inhibition at 50 µM [1]: 74 ± 3.2%
7 | CNC(=O)Oc1ccc(Cl)cc1/C=C/c1ccc(C)s1 [Compound 7, (E)-4-chloro-2-(2-(5-methylthiophen-2-yl)vinyl)phenyl methylcarbamate] | 30.4 µM | – | inhibition at 100 µM [1, 3]: 69.8 ± 1.15%
8 | CNC(=O)Oc1ccc(Cl)cc1C=Cc1ncc(C)s1 [Compound 8, (E) and (Z)-4-chloro-2-(2-(5-methylthiazol-2-yl)vinyl)phenyl methylcarbamate] | – | 59.1 µM | inhibition at 500 µM [1]: 87.21 ± 0.47%
9 | CCN(C)C(=O)Oc1ccccc1/C=C/c1cccs1 [Compound 9, (E)-2-(2-(thiophen-2-yl)vinyl)phenyl ethyl(methyl)carbamate] | 0.583 µM | – | inhibition at 10 µM [1, 3]: 83.9 ± 1.77%
10 | CCN(C)C(=O)Oc1ccc(F)cc1/C=C/c1cccs1 [Compound 10, (E)-4-fluoro-2-(2-(thiophen-2-yl)vinyl)phenyl ethyl(methyl)carbamate] | 3.08 µM | – | inhibition at 27 µM ([1]; at maximal concentration tested, 27 μM): 83.5 ± 1.49%
11 | CCN(C)C(=O)Oc1ccc(C)cc1/C=C/c1cccs1 [Compound 11, (E)-4-methyl-2-(2-(thiophen-2-yl)vinyl)phenyl ethyl(methyl)carbamate] | 1.54 µM | – | inhibition at 10 µM [1, 3]: 82.8 ± 1.57%
12 | CCN(C)C(=O)Oc1cccc(/C=C/c2cccs2)c1 [Compound 12, (E)-3-(2-(thiophen-2-yl)vinyl)phenyl ethyl(methyl)carbamate] | 1.07 µM | 1.5 µM | inhibition at 50 µM [1, 4]: 83.2 ± 0.84%
13 | CCN(C)C(=O)Oc1cc(OC)ccc1/C=C/c1cccs1 [Compound 13, (E)-5-methoxy-2-(2-(thiophen-2-yl)vinyl)phenyl ethyl(methyl)carbamate] | 1.88 µM | – | inhibition at 25 µM [1, 3]: 84.4 ± 2.29%
14 | CCN(C)C(=O)Oc1ccccc1/C=C/c1ccc(C)s1 [Compound 14, (E)-2-(2-(5-methylthiophen-2-yl)vinyl)phenyl ethyl(methyl)carbamate] | 90 µM | 85.1 µM | inhibition at 250 µM ([1]; at maximal concentration tested, 250 μM): 70 ± 0.8%
15 | O=C(Oc1ccccc1/C=C/c1cccs1)N1CCOCC1 [Compound 16, (E)-2-(2-(thiophen-2-yl)vinyl)phenyl morpholine-4-carboxylate] | 0.0265 µM | – | inhibition at 1 µM ([1]; at maximal concentration tested, 1 μM): 84.25 ± 0.82%; IC50 ([2]; average, PBMCs from two donors): 31.6 µM
16 | O=C(Oc1ccc(F)cc1/C=C/c1cccs1)N1CCOCC1 [Compound 17, (E)-4-fluoro-2-(2-(thiophen-2-yl)vinyl)phenyl morpholine-4-carboxylate] | 0.645 µM | – | inhibition at 25 µM [1, 3]: 82.3 ± 2.44%
17 | Cc1ccc(OC(=O)N2CCOCC2)c(/C=C/c2cccs2)c1 [Compound 18, (E)-4-methyl-2-(2-(thiophen-2-yl)vinyl)phenyl morpholine-4-carboxylate] | 0.43 µM | – | inhibition at 25 µM [1, 3]: 87.5 ± 1.31%
18 | O=C(Oc1cccc(/C=C/c2cccs2)c1)N1CCOCC1 [Compound 19, (E)-3-(2-(thiophen-2-yl)vinyl)phenyl morpholine-4-carboxylate] | 2.04 µM | – | inhibition at 50 µM [1, 4]: 79.7 ± 2.51%
19 | C[C@@H]1C[C@H]2[C@@H]3CCC4=CC(=O)C=C[C@]4(C)[C@@]3(F)[C@@H](O)C[C@]2(C)[C@@]1(O)C(=O)CO [Dexamethasone, reference compound] | – | – | IC50 ([2]; PBMCs, reference compound): 0.0035 µM
